According to patent US6329502A, “β-amino-α-hydroxycarboxylic acid derivatives and HIV protease inhibitors” (priority 1990, dated 2001):

Target: recombinant HIV protease (Human immunodeficiency virus type 1 group M subtype B, UniProt P12497)
Conditions: inhibitor 5 μM (final concentration), 2.0 μg enzyme

Q: How did the residual enzymic activity turn out when `CC[C@H](C)[C@H](NC(=O)[C@@H]1CCCN1C(=O)[C@@H](O)[C@H](Cc1ccccc1)NC(=O)[C@H](CC(N)=O)NC(=O)OCc1ccccc1)C(=O)NCC1CCCCC1` [Example 32, Benzyloxycarbonyl-Asn-(2S,3S)-AHPBA-Pro-Ile-NH--CH2 --C6 H11] was run?
A: The residual enzymic activity was 11.0%.

Target: T1, chemically synthesized HIV protease (Human immunodeficiency virus type 1 group M subtype B, UniProt P12497, C555A/C583A)
T1 construct: The HIV protease was chemically synthesized; made in house; host or cells: chemical peptide synthesis, no expression host
Format: biochemical
Conditions: inhibitor 5 μM (final concentration)
Protocol: The HIV protease was chemically synthesized by replacement of two cysteine residues in the natural sequence [Science, 230, 349 (1985)] with alanine residues. The reaction mixture contained 100 mM MES buffer (pH 5.5), 40 mM of substrate (Ac-[…]NH2 trifluoro-acetate), inhibitors at varying concentrations dissolved in DMSO and 9.2 μg of the HIV protease in a total volume of 15 μl. Incubation was carried out at 37° C. for 60 min. The reaction was started by the addition of the enzyme and terminated by 15 μl of acetonitrile. The amount of a fragment peptide produced was measured by reversed-phase HPLC analysis using an internal standerd. The HPLC condition was as followes.
Solvent A: 0.1% trifluoroacetic acid aqueous solution
Gradient: B was increased in 1.0%/min from 100% of A,

Q: Which “Residual Activity (%) 5 μM” value does the source give for `CC[C@H](C)[C@H](NC(=O)[C@@H]1CCCN1C(=O)[C@@H](O)[C@H](Cc1ccccc1)NC(=O)[C@H](CC(N)=O)NC(=O)OCc1ccccc1)C(=O)NCC1CCCCC1` [Example 32, Benzyloxycarbonyl-Asn-(2S,3S)-AHPBA-Pro-Ile-NH--CH2 --C6 H11] here?
A: Its value is 4.0%.

Same assay, conditions: inhibitor 1 mM

Q: For `CC(C)(C)OC(=O)N[C@@H](CC(N)=O)C(=O)N[C@@H](Cc1ccccc1)[C@@H](O)C(=O)NCC1CCCCC1` [Example 1, Boc-Asn-(2R,3S)-AHPBA-NH--CH2 --C6 H11], which “Residual Activity (%) 1 mM” value is on record?
A: Its value is 32.8%.

Q: How did the “Residual Activity (%) 1 mM” value turn out when `CC(C)(C)OC(=O)N[C@@H](Cc1ccccc1)C(=O)N[C@@H](CC(N)=O)C(=O)N[C@@H](Cc1ccccc1)[C@@H](O)C(=O)NCC1CCCCC1` [Example 2, Boc-Phe-Asn-(2R,3S)-AHPBA-NH--CH2 --C6 H11] was run?
A: Its value is 19.5%.

Q: How did the “Residual Activity (%) 1 mM” value turn out when `CC(C)(C)OC(=O)N[C@@H](CC(N)=O)C(=O)N[C@@H](Cc1ccccc1)[C@H](O)C(=O)NCC1CCCCC1` [Example 3, Boc-Asn-(2S,3S)-AHPBA-NH--CH2 --C6 H11] was run?
A: The value was 52.9%.

Q: For `CC(C)(C)OC(=O)N[C@@H](Cc1ccccc1)C(=O)N[C@@H](CC(N)=O)C(=O)N[C@@H](Cc1ccccc1)[C@H](O)C(=O)NCC1CCCCC1` [Example 4, Boc-Phe-Asn-(2S,3S)-AHPBA-NH--CH2 --C6 H11], which “Residual Activity (%) 1 mM” value is on record?
A: Its value is 20.3%.

Q: Which “Residual Activity (%) 1 mM” value does the source give for `CC(C)(C)OC(=O)N[C@@H](CO)C(=O)N[C@@H](Cc1ccccc1)[C@@H](O)C(=O)NCC1CCCCC1` [Example 5, Boc-Ser-(2R,3S)-AHPBA-NH--CH2 --C6 H11] here?
A: The value was 82.9%.

Q: For `CC(C)(C)OC(=O)N[C@@H](Cc1ccccc1)C(=O)N[C@@H](CO)C(=O)N[C@@H](Cc1ccccc1)[C@@H](O)C(=O)NCC1CCCCC1` [Example 6, Boc-Phe-Ser-(2R,3S)-AHPBA-NH--CH2 --C6 H11], which “Residual Activity (%) 1 mM” value is on record?
A: Its value is 33.3%.

Q: Which “Residual Activity (%) 1 mM” value does the source give for `CC(C)(C)OC(=O)N[C@@H](CO)C(=O)N[C@@H](Cc1ccccc1)[C@H](O)C(=O)NCC1CCCCC1` [Example 7, Boc-Ser-(2S,3S)-AHPBA-NH--CH2 --C6 H11] here?
A: Its value is 15.6%.

Q: For `CC(C)(C)OC(=O)N[C@@H](Cc1ccccc1)C(=O)N[C@@H](CO)C(=O)N[C@@H](Cc1ccccc1)[C@H](O)C(=O)NCC1CCCCC1` [Example 8, Boc-Phe-Ser(2S,3S)-AHPBA-NH--CH2 --C6 H11], which “Residual Activity (%) 1 mM” value is on record?
A: Its value is 47.0%.

Q: With `NC(=O)C[C@H](N)C(=O)N[C@@H](Cc1ccccc1)[C@@H](O)C(=O)NCC1CCCCC1` [Example 9, H-Asn-(2R,3S)-AHPBA-NH--CH2 --C6 H11] as the molecule, how does the “Residual Activity (%) 1 mM” value read?
A: Its value is 92.1%.

Q: For `NC(=O)C[C@H](NC(=O)[C@@H](N)Cc1ccccc1)C(=O)N[C@@H](Cc1ccccc1)[C@@H](O)C(=O)NCC1CCCCC1` [Example 10, H-Phe-Asn-(2R,3S)-AHPBA-NH--CH2 --C6 H11], which “Residual Activity (%) 1 mM” value is on record?
A: Its value is 43.4%.

Q: How did the “Residual Activity (%) 1 mM” value turn out when `NC(=O)C[C@H](NC(=O)[C@@H](N)Cc1ccccc1)C(=O)N[C@@H](Cc1ccccc1)[C@H](O)C(=O)NCC1CCCCC1` [Example 11, H-Phe-Asn-(2S,3S)-AHPBA-NH--CH2 --C6 H11] was run?
A: Its value is 16.4%.

Q: For `N[C@@H](CO)C(=O)N[C@@H](Cc1ccccc1)[C@@H](O)C(=O)NCC1CCCCC1` [Example 12, H-Ser-(2R,3S)-AHPBA-NH--CH2 --C6 H11], which “Residual Activity (%) 1 mM” value is on record?
A: The value was 89.7%.

Q: For `N[C@@H](Cc1ccccc1)C(=O)N[C@@H](CO)C(=O)N[C@@H](Cc1ccccc1)[C@@H](O)C(=O)NCC1CCCCC1` [Example 13, H-Phe-Ser-(2R,3S)-AHPBA-NH--CH2 --C6 H11], which “Residual Activity (%) 1 mM” value is on record?
A: Its value is 58.9%.

Q: `N[C@@H](CO)C(=O)N[C@@H](Cc1ccccc1)[C@H](O)C(=O)NCC1CCCCC1` [Example 14, H-Ser-(2S,3S)-AHPBA-NH--CH2 --C6 H11] was tested. Which “Residual Activity (%) 1 mM” value did it give?
A: Its value is 95.5%.

Q: How did the “Residual Activity (%) 1 mM” value turn out when `N[C@@H](Cc1ccccc1)C(=O)N[C@@H](CO)C(=O)N[C@@H](Cc1ccccc1)[C@H](O)C(=O)NCC1CCCCC1` [Example 15, H-Phe-Ser-(2S,3S)-AHPBA-NH--CH2 --C6 H11] was run?
A: The value was 23.8%.

Q: `CC[C@H](C)[C@H](NC(=O)[C@@H]1CCCN1C(=O)[C@@H](O)[C@H](Cc1ccccc1)NC(=O)OC(C)(C)C)C(=O)OC1CCCCC1` [Example 28, Boc-(2S,3S)-AHPBA-Pro-Ile-O--C6 H11] was tested. Which “Residual Activity (%) 1 mM” value did it give?
A: Its value is 63.9%.

Q: `CC[C@H](C)[C@H](NC(=O)[C@@H]1CCCN1C(=O)[C@H](O)[C@H](Cc1ccccc1)NC(=O)OC(C)(C)C)C(=O)OC1CCCCC1` [Example 29, Boc-(2R,3S)-AHPBA-Pro-Ile-O--C6 H11] was tested. Which “Residual Activity (%) 1 mM” value did it give?
A: The value was 88.3%.

Q: With `CC[C@H](C)[C@H](NC(=O)[C@@H]1CCCN1C(=O)[C@@H](O)[C@H](Cc1ccccc1)NC(=O)OC(C)(C)C)C(=O)NCC1CCCCC1` [Example 30, Boc-(2S,3S)-AHPBA-Pro-Ile-NH--CH2 --C6 H11] as the molecule, how does the “Residual Activity (%) 1 mM” value read?
A: The value was 23.4%.

Q: For `CC[C@H](C)[C@H](NC(=O)[C@@H]1CCCN1C(=O)[C@H](O)[C@H](Cc1ccccc1)NC(=O)OC(C)(C)C)C(=O)NCC1CCCCC1` [Example 31, Boc-(2R,3S)-AHPBA-Pro-Ile-NH--CH2 --C6 H11], which “Residual Activity (%) 1 mM” value is on record?
A: Its value is 47.4%.

Q: Which “Residual Activity (%) 1 mM” value does the source give for “Boc-(2S,3S)-AHPBA-(cHexm)Gly-Ile-NH--CH2 --C6 H11 [Example 33]” here?
A: The value was 85.6%.

Q: How did the “Residual Activity (%) 1 mM” value turn out when “H-Val-Val-(2R,3S)-AHPBA-(D)-Phe-(D)-Val-(D)-Val-NH2 [Example 23]” was run?
A: Its value is 28.3%.
